The record followed here is PubChem BioAssay (NCI).

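Interpolation was linear, between the two tested concentrations surrounding the appropriate level; five concentrations were tested over 48 hours in 96-well plates. TGI is the concentration that stops growth completely.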

Some test systems named below: A549 NSCLC; EKVX NSCLC; HCT-116 colon; HT29 colon; MALME-3M melanoma; MDA-MB-435; NCI-H23 lung; NCI-H522 lung; OVCAR-3 ovarian; OVCAR-5 ovarian; SF-295 CNS; SF-539 CNS; SK-OV-3 ovarian; SN12C renal; SR leukemia; SW-620 colon; TK-10 renal; UACC-257 melanoma; UACC-62 melanoma.
Assay in all cases: DTP human tumour cell line panel, 48 h

One may read the TGI as the concentration at which net growth stops. Low readings indicate greater sensitivity of the cells, high ones lower sensitivity of the cells. With `CC(O)C1(CNc2cc(Cl)nc(N)n2)CCC1` (centres undefined), the concentration for total growth inhibition (TGI) in the test on A549 NSCLC, in the test on EKVX NSCLC, with HCT-116 colon, in the test on HT29 colon, in the test with MALME-3M melanoma and in the test on MDA-MB-435 was greater than 100 µM in each case. Further, the TGI in the test with NCI-H23 lung, in the test on NCI-H522 lung, in the test with OVCAR-3 ovarian, with OVCAR-5 ovarian, in the test on SF-295 CNS and in the test with SF-539 CNS was greater than 100 µM throughout. The concentration for total growth inhibition (TGI) with SK-OV-3 ovarian, in the test on SN12C renal, in the test with SR leukemia, in the test with SW-620 colon, in the test on TK-10 renal and with UACC-257 melanoma was greater than 100 µM throughout. In the test with UACC-62 melanoma, the concentration for total growth inhibition (TGI) is greater than 100 µM.

Turning to `Oc1[nH]c2ccccc2c1N=NC(=S)Nc1cccc(Cl)c1`, the TGI in the test with A549 NSCLC is 35.6 µM; with EKVX NSCLC, greater than 100 µM; in the test on HCT-116 colon, 17.3 µM; in the test on HT29 colon, 28.4 µM; in the test with MALME-3M melanoma, 52.3 µM; in the test with MDA-MB-435 it was 99.4 µM. The TGI with NCI-H23 lung is 52.3 µM; in the test with NCI-H522 lung, 77.6 µM; in the test with OVCAR-3 ovarian, greater than 100 µM; with OVCAR-5 ovarian it was greater than 100 µM; in the test with SF-295 CNS, 29.2 µM; with SF-539 CNS, 22.4 µM. For the same compound, the TGI in the test with SK-OV-3 ovarian is 61.1 µM; in the test with SN12C renal, greater than 100 µM; with SR leukemia, 9.71 µM; in the test on SW-620 colon, 26.8 µM; in the test on TK-10 renal it was 84.8 µM; in the test with UACC-257 melanoma, 75.5 µM. The total growth inhibition concentration (TGI) with UACC-62 melanoma is 29 µM.

On to `O=C(O)[C@@H]1CCS(=O)(=O)N1`, for which the TGI with A549 NSCLC, in the test on EKVX NSCLC, in the test with HCT-116 colon, in the test on HT29 colon, with MALME-3M melanoma and in the test on MDA-MB-435 was greater than 100 µM throughout. The concentration for total growth inhibition (TGI) with NCI-H23 lung, in the test with NCI-H522 lung, in the test with OVCAR-3 ovarian, in the test on OVCAR-5 ovarian, with SF-295 CNS and in the test with SF-539 CNS was greater than 100 µM in each case. Besides, the TGI in the test on SK-OV-3 ovarian, with SN12C renal, with SR leukemia, with SW-620 colon, in the test with TK-10 renal and in the test with UACC-257 melanoma was greater than 100 µM each time. Further, in the test with UACC-62 melanoma, the TGI is greater than 100 µM.

For `O=C1C(c2c(O)[nH]c3ccc(F)cc23)=Nc2ccccc21`, the total growth inhibition concentration (TGI) in the test on A549 NSCLC, in the test with EKVX NSCLC, with HCT-116 colon, with HT29 colon, in the test on MALME-3M melanoma and in the test on MDA-MB-435 was greater than 100 µM throughout. Moreover, the TGI with NCI-H23 lung is greater than 100 µM; with NCI-H522 lung it was greater than 100 µM; in the test with OVCAR-3 ovarian it was greater than 100 µM; in the test on OVCAR-5 ovarian, greater than 100 µM; in the test on SF-295 CNS it was greater than 100 µM; in the test with SK-OV-3 ovarian, 24.9 µM. For the same compound, the TGI with SN12C renal, with SR leukemia, in the test with SW-620 colon, in the test on TK-10 renal, in the test with UACC-257 melanoma and in the test on UACC-62 melanoma was greater than 100 µM each time.

`Nc1ncnc2c1ncn2[C@@H]1C[C@@H]1CO`: the TGI with A549 NSCLC, in the test on EKVX NSCLC, in the test with HCT-116 colon, in the test with HT29 colon, with MALME-3M melanoma and with MDA-MB-435 was greater than 100 µM each time. The TGI with NCI-H23 lung, in the test on NCI-H522 lung, with OVCAR-3 ovarian, in the test on OVCAR-5 ovarian, with SF-295 CNS and in the test with SF-539 CNS was greater than 100 µM in each case. Besides, the TGI in the test on SN12C renal, in the test with SR leukemia, with SW-620 colon and in the test on UACC-257 melanoma was greater than 100 µM in each case.

Regarding `N#Cc1c(N)nc2n[nH]c(N)c2c1-c1ccc(Cl)cc1`, the TGI is greater than 72.9 µM in the test on A549 NSCLC; 44 µM in the test with EKVX NSCLC; greater than 100 µM with HCT-116 colon; greater than 58.6 µM with HT29 colon; 8.69 µM in the test with MALME-3M melanoma; greater than 74.4 µM in the test on MDA-MB-435. Further, the TGI is 29.8 µM in the test on NCI-H23 lung; 9.11 µM in the test with NCI-H522 lung; 18.2 µM in the test on OVCAR-3 ovarian; greater than 100 µM in the test on OVCAR-5 ovarian; 42.7 µM with SF-295 CNS; 45 µM in the test on SF-539 CNS. For the same compound, the TGI in the test on SK-OV-3 ovarian is 7.33 µM; in the test on SN12C renal, 51.6 µM; with SR leukemia, greater than 100 µM; in the test with SW-620 colon it was greater than 100 µM; in the test on UACC-257 melanoma it was greater than 100 µM; in the test with UACC-62 melanoma it was 4.23 µM.

For `Nc1nc(N)c2c3c(cnc2n1)CC(c1ccccc1)CC3` (centres undefined), the TGI is greater than 100 µM with A549 NSCLC; greater than 100 µM in the test on EKVX NSCLC; 32.5 µM with HCT-116 colon; 66.2 µM in the test with HT29 colon; greater than 100 µM in the test on MALME-3M melanoma; greater than 100 µM in the test with MDA-MB-435. Also, the TGI is 35.9 µM with NCI-H522 lung; greater than 100 µM in the test on OVCAR-3 ovarian; greater than 100 µM in the test on OVCAR-5 ovarian; greater than 100 µM in the test with SF-295 CNS; greater than 100 µM with SF-539 CNS; 63 µM in the test on SK-OV-3 ovarian. The TGI in the test on SN12C renal is 53.3 µM; in the test with SR leukemia it was 66.1 µM; in the test on SW-620 colon, greater than 100 µM; in the test with TK-10 renal, 97.9 µM; in the test on UACC-257 melanoma, greater than 100 µM; with UACC-62 melanoma, greater than 100 µM.

Take `O=c1c(/C=C/c2c(O)ccc3ccccc23)nnc2sc(-c3cccc(Br)c3)nn12`: the TGI is greater than 100 µM in the test with A549 NSCLC; 98.1 µM in the test on EKVX NSCLC; greater than 100 µM with HCT-116 colon; 82.1 µM in the test with HT29 colon; greater than 100 µM with MALME-3M melanoma; greater than 100 µM with MDA-MB-435. For the same compound, the total growth inhibition concentration (TGI) in the test with NCI-H23 lung is 40.3 µM; with NCI-H522 lung, 42.3 µM; with OVCAR-3 ovarian, greater than 100 µM; with OVCAR-5 ovarian, greater than 100 µM; with SF-295 CNS, greater than 100 µM; with SF-539 CNS it was greater than 100 µM. Also, the TGI with SK-OV-3 ovarian is greater than 100 µM; in the test on SR leukemia, 41.1 µM; with SW-620 colon, greater than 100 µM; in the test on UACC-257 melanoma it was greater than 100 µM; in the test with UACC-62 melanoma, 68.6 µM.
